Patent publication US12721343B2, “Methods and uses of a mixture comprising alpha-cypermethrin and dinotefuran for controlling invertebrate pests in t” (BASF AGRO B.V., priority 2020, dated 2026)

Assays:
Format in all cases: in vivo
[1] = system: Sod webworm (Herpetogramma phaeopteralis, PACYPH); assay: Field trial against sod webworm, larvae counts; conditions: for % Control / % activity: alpha-cypermethrin 47.5, dinotefuran 600, combination 47.5 + 190 g ai/ha; for Sod Webworm Counts (average number of larvae per treatment per sample): 7 days after treatment, alpha-cypermethrin 47.5, dinotefuran 600, combination 47.5 + 190 g ai/hectare
Description: (§1) Synergism can be described as an interaction where the combined effect of two or more compounds is greater than the sum of the individual effects of each of the compounds. The presence of a synergistic effect in terms of percent control, between two mixing partners (X and Y) can be calculated using the Colby equation (Colby, S. R., 1967, Calculating Synergistic and Antagonistic Responses in Herbicide Combinations, Weeds, 15, 20-22):
Treatments were applied with a natural infestation of sod webworm. The experiment was conducted in four replications, utilizing 3×3 m2 plots. One application was made in 813 liters per hectare spray volume. po The treatments consisted of an untreated check, formulations of either alpha-cypermethrin at a use rate of 47.5 grams ai/hectare, dinotefuran at 600 gram ai/hectare or a combination of alpha-cypermethrin and dinotefuran at 47.5+190 grams ai/hectare.
Direct visual counts were made of sod webworm larvae in each plot 7 days after treatment.

[2] = system: Black cut worm (Agrostis ypsilon, AGROYP); assay: Field bioassay with caged black cutworm larvae on putting green; conditions: for % Control / % activity: alpha-cypermethrin 47.5, dinotefuran 600, combination 47.5 + 190 g ai/ha; for Black Cutworm Counts (average surviving larvae per treatment per sample, 10 larvae/plot): 19 days after treatment, alpha-cypermethrin 47.5, dinotefuran 600, combination 47.5 + 190 g ai/hectare
Description: as §1
The study was conducted on a creeping bentgrass/annual bluegrass putting green in a golf course. The study was a field bioassay where insect larvae were placed in cages at different intervals after applying insecticide treatments.
Applications were made to 4-foot by 6-foot plots replicated four times in 813 liter spray volume per hectare. Black cutworm (Agrostis ypsilon) larvae were caged in the turf at after the treatments were applied. Cages consisted of six-inch diameter metal cans. Two cages were inserted into each plot and five second-instar larvae were placed into each cage (total of 10 larvae/plot) before dusk. Window screen and a plastic louver were placed on top of the cages and held down with nails to secure the larvae. Larvae were caged for four days (96 hours) then a disclosing solution of 1 fl. oz. Joy Ultra dish soap in 1 gallon of water was used to flush surviving larvae 19 days after treatment.

[3] = system: Fall armyworm, Spodoptera frugiperda (LAPHFR); assay: Fall armyworm feeding damage on creeping bentgrass fairway; conditions: for % Reduction / % activity: alpha-cypermethrin 95, dinotefuran 600, combination 95 + 380 g ai/ha; for Fall Armyworm damage (%) (average feeding damage): five days after treatment, two applications, alpha-cypermethrin 95, dinotefuran 600, combination 95 + 380 g ai/hectare
Description: as §1
A trial was established on a mature ‘L-93’ creeping bentgrass fairway. An initial application was made with a repeat application 8 days later. Fall armyworms were artificially infested at the test site eight hours after the second application. Ten living caterpillars were added to each plot and were protected within a PVC ring. Plots were rated five days after treatement for percent damage by caterpillar feeding within the ring area.

[4] = system: Masked chafer (Cyclocephala spp., CYCCSP); assay: Turf trial against masked chafer grubs (Kentucky Bluegrass, natural infestation), larvae counts; conditions: for % Control / % activity: alpha-cypermethrin 95, dinotefuran 600, combination 95 + 380 g ai/ha; for Masked Chafer Grub Counts (average per treatment per sample, per 1 sq. ft.): 62 days after treatment, alpha-cypermethrin 95, dinotefuran 600, combination 95 + 380 g ai/hectare
Description: as §1
The trial was conducted with Kentucky Bluegrass as main turf variety, with a natural infestation of masked chafer grubs. Treatments were arranged in a randomized complete block design and replicated four times in plots measuring 24 ft^2.
Treatments were applied in 813 liter/hectare spray volume.
White grub control was determined by larvae counts 62 days after treatment. A sod cutter cut a strip down the center of each replicate and a shovel cut the stirp into a small square in the middle of each plot. The number of larvae in each 1 sq. ft. were counted.

[5] = system: Masked chafer grub, Cyclocephala spp. (CYCCSP); assay: Perennial ryegrass plot trial against masked chafer grubs (seeded adults), live grub counts; conditions: for % Control / % activity: alpha-cypermethrin 95, dinotefuran 600, combination 95 + 380 g ai/ha; for Masked Chafer grub counts (average live grubs per treatment per sample): 4 days after treatment, alpha-cypermethrin 95, dinotefuran 600, combination 95 + 380 g ai/hectare
Description: as §1
The study was conducted on perennial ryegrass. Individual plots were 6 ft×6 ft and arranged in a randomized complete block design with 4 replications. Adult Cyclocephala spp. (masked chafer) were collected when active and immediately placed inside covered PVC rings on each plot. Approximately 50 adult masked chafers were added to each plot throughout the active adult stage. The rings were removed 24-36 hours after insecticide application. After the treatment, the plots were irrigated immediately with approximately 0.125″ of water. Treatments were applied in water equivalent to 813 liters/hectare. The number of live grub larvae was assessed 4 days after treatment by removing a two-foot strip of sod cut to a […] each plot (12 ft2 per plot).

[6] = system: Japanese beetle grub (Popillia japonica, POPIJA); assay: Turf plot trial against Japanese beetle grubs, grub counts in soil cores; conditions: 85 DAT; for % Control / % activity: alpha-cypermethrin 95, dinotefuran 600, combination 95 + 380 g ai/ha; for Japanese Beetle Grub Counts (average per treatment per sample): alpha-cypermethrin 95, dinotefuran 600, combination 95 + 380 g ai/hectare
Description: as §1
The trial was conducted in plots consisting of a mix of Poa pratensis (~10%)—Lolium perenne (~60%)—Festuca arundinacea (~10%), and Agrostis stolonifera (<10%). Treatments were arranged in a randomized complete block design and replicated four times. Each replicate consisted of 3 arenas (~150 in^2). Each replicate was contained within a turfgrass plot measuring 9 ft^2. Treatments were applied in 813 liter/hectare spray volume.
To obtain consistent densities of white grub larvae, Japanese beetles (Popillia japonica) were captured in pheromone traps and seeded into the arenas to mate and oviposit.
20 males and 20 females were placed into 8 inch diameter PVC arenas (height=6 inch). The arena was driven 1 inch into the ground and fit with a mesh covering (324 openings/in2) to prevent beetles from escaping. After 3 days, the mesh coverings were removed, beetles removed, and 40 new beetles (20 males and 20 females) were placed into the arenas, followed by a third introduction. Nineteen days after the initial infestation date, the arenas were dismantled, and the turf was maintained as normal. Turf paint was used to mark the edges of turf where the arenas were located and reapplied as necessary.
White grub suppression was assessed 85 DAT by comparing the densities of grubs in treated and untreated plots. Three soil cores (total area=150 in2) were removed from each plot where the arenas were located using a large golf course cup cutter. Core soils were examined visually, by breaking the soil over a tray and looking for grubs (while in the field). The number of white grubs was pooled for the arenas in each replicate. Japanese beetle larvae present at time of evaluation (98.4%) were a mix of 2nd (42%) and 3rd (58%) instars.

[7] = system: Southern Chinch Bug (Blissus insularis, BLISIN); assay: Field trial against Southern chinch bug, nymph counts by vacuum sampling; conditions: for % Control / % activity: alpha-cypermethrin 95, dinotefuran 600, combination 95 + 380 g ai/ha; for Nymph Counts (average number of Chinch bug nymphs per treatment per sample): 28 days after treatment, alpha-cypermethrin 95, dinotefuran 600, combination 95 + 380 g ai/hectare
Description: as §1
Treatments were applied in a field with a natural infestation of Southern Chinch Bugs. The experiment was conducted with four replications, utilizing 3×3 m2 plots. The application was made in 813 liters per hectare spray volume.
The treatments consisted of an untreated check, and formulations containing either alpha-cypermethrin at a use rate of 95 grams ai/hectare, dinotefuran at 600 gram ai/hectare or a combination of alpha-cypermethrin and dinotefuran at 95+380 grams ai/hectare. Direct visual counts were made of larval chinch bugs in all stages of development after being mechanically vacuumed for 20 seconds from the surface of the turf. Chinch Bug abundance was measured using a commercially available lawn vacuum/blower combination machine by covering the vacuum (intake) orifice with mesh cloth and placing the intake on randomly within the turf plot and holding suction for […]. Samples were collected from each plot in an identical manner. After the sample was collected and the vacuum turned off, the captured contents of the mesh cloth were tapped into a 5-gallon plastic bucket for ease of counting of nymphs (at any instar).
The following average numbers of chinch bug nymphs were collected per sample per treatment 28 days after the insecticide applications were made.

[8] = system: Fall armyworm (Spodoptera frugiperda, LAPHFR); assay: Golf course trial against fall armyworm, soapy water flush counts; conditions: for % Control / % activity: alpha-cypermethrin 95, dinotefuran 600, combination 95 + 380 g ai/ha; for Fall Armyworm worm Counts (average per treatment per sample, 1-sq-ft): 28 days after treatment, alpha-cypermethrin 95, dinotefuran 600, combination 95 + 380 g ai/hectare
Description: as §1
This trial was conducted at a golf course in an area planted with Hybrid bermudagrass, cv. ‘419’, with natural infestation of fall armyworm. The trial was laid out in 6 replications with each plot measuring 20×25 ft. Applications were made in a spray volume of 203 liters per hectare. The fall armyworms were about second or third instar when found. Fall armyworm density assessment was conducted as soapy water flush. About one gallon of soapy water was poured into an area marked with a 1-sq-ft PVC pipe square. Fall armyworms surfaced within 5 minutes and were counted in each 1-sq-ft area. Fall armyworm densities in a total of three squares (or 3 subsamples) were determined in each plot at each sampling data. Assessments were conducted at 28 days after treatment.

[9] = 28 DAT, calculated from solo rates 95 and 600 g ai/ha

Structure (SMILES) | % Control / % activity ([1]; 7 DAT) [%] | Sod Webworm Counts (average number of larvae per treatment per sample) [1] | % Control / % activity ([2]; 19 DAT) [%] | Black Cutworm Counts (average surviving larvae per treatment per sample, 10 larvae/plot) [2] | % Reduction / % activity ([3]; 5 DAT) [%] | Fall Armyworm damage (%) (average feeding damage) [3] | % Control / % activity ([4]; 62 DAT) [%] | Masked Chafer Grub Counts (average per treatment per sample, per 1 sq. ft.) [4] | % Control / % activity ([5]; 4 DAT) [%] | Masked Chafer grub counts (average live grubs per treatment per sample) [5] | % Control / % activity [6] [%] | Japanese Beetle Grub Counts (average per treatment per sample) [6] | % Control / % activity ([7]; 28 DAT) [%] | Nymph Counts (average number of Chinch bug nymphs per treatment per sample) [7] | % Control / % activity ([8]; 28 DAT) [%] | Fall Armyworm worm Counts (average per treatment per sample, 1-sq-ft) [8] | also measured
CC1(C)C(C=C(Cl)Cl)C1C(=O)OC(C#N)c1cccc(Oc2ccccc2)c1 (racemic) [Alpha-cypermethrin, racemate comprising (R)-α-cyano-3-phenoxybenzyl (1S, 3S)-3-(2,2-dichlorovinyl)-2,2-dimethylcyclopropanecarboxy late; (S)-α-cyano-3-phenoxybenzyl (1R, 3R) (2,2-dichlorovinyl)-2,2-dimethylcyclopropanecarboxylate] | 57 | 2.5 | 80 | 1.75 | 94 | 1.25 | 91 | 0.25 | 18 | 18.5 | 0 | 2.25 | 81 | 6.0 | 57 | 1.39 | expected % activity (Colby) ([1]; 7 DAT, calculated from solo rates 47.5 and 600 g ai/ha): 87%; expected % activity (Colby) ([2]; 19 DAT, calculated from solo rates 47.5 and 600 g ai/ha): 83%; expected % activity (Colby) ([3]; 5 DAT, calculated from solo rates 95 and 600 g ai/ha): 98%; expected % activity (Colby) ([4]; 62 DAT, calculated from solo rates 95 and 600 g ai/ha): 97%; expected % activity (Colby) ([5]; 4 DAT, calculated from solo rates 95 and 600 g ai/ha): 29%; expected % activity (Colby) ([6]; calculated from solo rates 95 and 600 g ai/ha): 0%; expected % activity (Colby) [7, 9]: 96%; expected % activity (Colby) [8, 9]: 58%
CNC(=N[N+](=O)[O-])NCC1CCOC1 (racemic) [Dinotefuran, (RS)-1-methyl-2-nitro-3-(tetrahydro-3-furylmethyl) guanidine] | 60 | 2.3 | 17 | 7.25 | 75 | 5.00 | 64 | 1.00 | 13 | 19.5 | 0 | 2.00 | 81 | 5.8 | 2 | 3.17 | 
